Measured values as given in ChEMBL document CHEMBL3865842, “Spirobisnaphthalenes and lactones from the seeds of Strychnos angustiflora with potential anti-inflammatory activity” (Bioorg Med Chem Lett, 2016).

Assays:
BV-2 = assay: Inhibition of LPS-induced nitric oxide production in mouse BV2 cells pretreated for 1 hr before LPS stimulation measured after 24 hrs by Griess assay; format: functional, cell-based
[1] = Cytotoxicity against human HCT116 cells at 10 uM measured after 72 hrs by MTT assay; format: toxicity, cell-based; conditions: hct-116, 72 h
[2] = Cytotoxicity against human HepG2 cells at 10 uM measured after 72 hrs by MTT assay; format: toxicity, cell-based; conditions: hepg2, 72 h
[3] = Cytotoxicity against human BGC823 cells at 10 uM measured after 72 hrs by MTT assay; format: toxicity, cell-based; conditions: bgc-823, 72 h
[4] = Cytotoxicity against human NCI-H1650 cells at 10 uM measured after 72 hrs by MTT assay; format: toxicity, cell-based; conditions: nci-h1650, 72 h
[5] = Cytotoxicity against human A2780 cells at 10 uM measured after 72 hrs by MTT assay; format: toxicity, cell-based; conditions: a2780, 72 h

Row | SMILES | IC50 (BV-2) [µM] | Activity [1] | Activity [2] | Activity [3] | Activity [4] | Activity [5]
1 | Oc1cccc2c1[C@@H](O)[C@H]1O[C@H]1C21Oc2cccc3cccc(c23)O1 | 2.05 | Non-Toxic | Non-Toxic | Non-Toxic | Non-Toxic | Non-Toxic
2 | Oc1cccc2c1[C@H](O)[C@@H]1O[C@@H]1C21Oc2cccc3cccc(c23)O1 | 4.85 | Non-Toxic | Non-Toxic | Non-Toxic | Non-Toxic | Non-Toxic
3 | COc1cc(O)cc2c1C(=O)O[C@@H](C)CCC[C@H](O)CCC2 | 87.1 | Non-Toxic | Non-Toxic | Non-Toxic | Non-Toxic | Non-Toxic
4 | Oc1cccc2c1[C@H](O)C[C@@H](O)C21Oc2cccc3cccc(c23)O1 | 67.6 | Non-Toxic | Non-Toxic | Non-Toxic | Non-Toxic | Non-Toxic
5 | O=C1C[C@@H](O)[C@]23Oc4cccc5c4[C@](CC[C@@H]5O)(Oc4ccc(O)c1c42)O3 | > 100 | Non-Toxic | Non-Toxic | Non-Toxic | Non-Toxic | Non-Toxic
6 | COc1cc(O)cc2c1C(=O)O[C@@H](C)CCC[C@@H](O)CCC2 | > 100 | Non-Toxic | Non-Toxic | Non-Toxic | Non-Toxic | Non-Toxic
7 | Oc1cccc2c1[C@@H](O)[C@H](O)[C@@H](O)C21Oc2cccc3cccc(c23)O1 | > 100 | Non-Toxic | Non-Toxic | Non-Toxic | Non-Toxic | Non-Toxic
8 | O=C1CC[C@]23Oc4ccc(O)c5c4[C@](Oc4cccc1c42)(O3)[C@H](O)CC5=O | > 100 | Non-Toxic | Non-Toxic | Non-Toxic | Non-Toxic | Non-Toxic
9 | CO[C@H]1c2c(O)cccc2C2(Oc3cccc4cccc(c34)O2)[C@H](O)[C@H]1O | 25.7 | Non-Toxic | Non-Toxic | Non-Toxic | Non-Toxic | Non-Toxic
10 | O=C1CC[C@]23Oc4ccc(O)c5c4[C@](Oc4cccc1c42)(O3)[C@@H]1O[C@@H]1[C@@H]5O | 11.7 | Non-Toxic | Non-Toxic | Non-Toxic | Non-Toxic | Non-Toxic
11 | COc1cc(/C=C/C(=O)CC(=O)/C=C/c2ccc(O)c(OC)c2)ccc1O [CURCUMIN] | 1.42 |  |  |  |  | 
12 | COc1cc(O)cc2c1C(=O)O[C@@H](C)CCCCCCC2 [LASIODIPLODIN] | > 100 | Non-Toxic | Non-Toxic | Non-Toxic | Non-Toxic | Non-Toxic
13 | CO[C@@H]1CC(=O)c2cccc3c2[C@@]12Oc1ccc(O)c4c1[C@](O3)(O2)[C@@H]1O[C@@H]1[C@@H]4O [PREUSSOMERIN C] | 1.16 | Non-Toxic | Non-Toxic | Non-Toxic | Non-Toxic | Non-Toxic
